Test results taken from patent US20180282281A1, “IMMUNOREGULATORY AGENTS” (FLEXUS BIOSCIENCES, INC., priority 2014, published 2018).

What follows are molecules tested against T1, human IDO1 (Homo sapiens, UniProt P14902) (assay: HEK293 human IDO1 cell-based IDO inhibition assay). Settings: HEK293 cells stably expressing human IDO1; 20 hours incubation; absorbance at 490 nm (Ehrlich reagent); 500 nM reference standard = 100% inhibition; read-out: HEK Human IDO-1 Potency.
T1 construct: expressed in transfected cells
T1 sequence (P14902 whole entry): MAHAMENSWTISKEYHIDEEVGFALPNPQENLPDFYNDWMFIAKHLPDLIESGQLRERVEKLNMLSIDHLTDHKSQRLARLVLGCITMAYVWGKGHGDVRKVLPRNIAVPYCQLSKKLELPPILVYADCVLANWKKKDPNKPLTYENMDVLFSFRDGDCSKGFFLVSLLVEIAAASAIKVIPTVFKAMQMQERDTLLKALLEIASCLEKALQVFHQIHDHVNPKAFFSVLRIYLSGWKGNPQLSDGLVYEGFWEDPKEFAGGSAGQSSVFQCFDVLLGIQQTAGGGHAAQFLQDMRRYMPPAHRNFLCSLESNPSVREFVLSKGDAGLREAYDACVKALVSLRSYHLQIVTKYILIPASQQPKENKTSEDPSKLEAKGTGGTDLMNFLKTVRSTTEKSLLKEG
Method: 1HEK293 cells were transfected with a pCDNA-based mammalian expression vector harboring human IDO1 cDNA (NM 002164.2) by electroporation. They were cultured in medium (DMEM with 10% FBS) containing 1 mg/ml G418 for two weeks. Clones of HEK293 cells that stably expressed human IDO1 protein were selected and expanded for IDO inhibition assay.
The human IDOL/HEK293 cells were seeded at 10,000 cells per 50 μL per well with RPMI/phenol red free media contains 10% FBS in a 384-well black wall clear bottom tissue culture plate (Matrix Technologies LLC) 100 nL of certain concentration of compound was then added to each well using ECHO liquid handling systems. The cells were incubated for 20 hours in 37° C. incubator with 5% CO2.
The compound treatments were stopped by adding Trichloroacetic Acid (Sigma-Aldrich) to a final concentration at 0.2%. The cell plate was further incubated at 50° C. for 30 minute. The equal volume supernatant (20 μL) and 0.2% (w/v) Ehrlich reagent (4-dimethylaminobenzaldehyde, Sigma-Aldrich) in glacial acetic acid were mixed in a new clear bottom 384-well plate. This plate was then incubated at room temperature for 30 minute. The absorbance at 490 nm was measured on Envision plate reader.
“N-(4-chlorophenyl)-2-(cis-4-(6-fluoroquinolin-4-yl)-1-hydroxycyclohexyl) propanamide [Example 231]” was tested, and the IC50 was < 250 nM.

Same assay, conditions: read-out: HEK Human IDO-1 Potency
`C=CC[C@@H](C(=O)Nc1ccc(Cl)cc1N)[C@H]1CC[C@@H](c2ccnc3ccc(F)cc32)CC1` [Example 241, (R)-N-(2-amino-4-chlorophenyl)-2-(cis-4-(6-fluoroquinolin-4-yl)cyclohexyl)pent-4-enamide] was tested, and the IC50 was < 50 nM.
For `C[C@@H](C(=O)Nc1nccs1)[C@H]1CC[C@@H](c2ccnc3ccc(F)cc32)CC1` [Example 75, (R)-2-((cis)-4-(6-fluoroquinolin-4-yl)cyclohexyl)-N-(thiazol-2-yl)propanamide], the IC50 was < 250 nM.
`COCC(C(=O)Nc1ccc(Cl)cc1)N1CCN(c2ccnc3ccc(F)cc23)CC1` (racemic) [Example 133, (±)—N-(4-Chlorophenyl)-2-(4-(6-fluoroquinolin-4-yl)piperazin-1-yl)-3-methoxypropanamide] was tested, and the IC50 was > 250 nM.
In the case of `CCCC(C(=O)NC1(C)CCCCC1)N1CCN(c2ccnc3ccc(F)cc23)CC1` (single isomer, unassigned) [Example 249, 2-(4-(6-Fluoroquinolin-4-yl)piperazin-1-yl)-N-(1-methylcyclohexyl)pentanamide], the IC50 is reported as < 50 nM.
In the case of `COCC(C(=O)Nc1ccc(Cl)cc1)N1CCN(c2ccnc3ccc(F)cc23)CC1` (single isomer, unassigned) [Example 135, N-(4-chlorophenyl)-2-(4-(6-fluoroquinolin-4-yl)piperazin-1-yl)-3-methoxypropanamide], the IC50 is reported as > 250 nM.
`C[C@H](C(=O)Nc1ccc(Cl)cc1)[C@H]1CC[C@@H](c2ccnc3ccc(I)cc32)CC1` (single isomer, unassigned) [Example 152a] was tested, and the IC50 was < 50 nM.
With `CC1(CC(=O)Nc2ccc(F)cc2)CCN(c2ccnc3ccc(F)cc23)CC1` [Example 120, N-(4-Fluorophenyl)-2-(1-(6-fluoroquinolin-4-yl)-4-methylpiperidin-4-yl)acetamide] the IC50 was > 250 nM.
`CCC(C(=O)Nc1ccc(C)cc1)N1CCC(Oc2ccnc3ccc(F)cc23)CC1` (stereo not shown) [compound 97] was tested, and the IC50 was < 250 nM.
`CCC(C(=O)Nc1ccc(Cl)cc1)N1CCC(Oc2ccnc3ccc(F)cc23)CC1` (stereo not shown) [compound 98] was tested, and the IC50 was < 250 nM.
For `C[C@@H](C(=O)Nc1ccncc1)[C@H]1CC[C@@H](c2ccnc3ccc(F)cc32)CC1` [Example 74, (R)-2-((cis)-4-(6-fluoroquinolin-4-yl)cyclohexyl)-N-(pyridin-4-yl)propanamide], the IC50 was < 50 nM.
For `O=C(CC1CCN(Cc2ccnc3ccccc23)CC1)Nc1ccc(F)cc1` [Example 114, N-(4-Fluorophenyl)-2-(1-(quinolin-4-ylmethyl)piperidin-4-yl)acetamide], the IC50 was < 250 nM.
`C[C@H](C(=O)Nc1ccc(Cl)cc1)[C@H]1CC[C@H](c2ccnc3cn[nH]c32)CC1` (single isomer, unassigned) [Example 150c] was tested, and the IC50 was > 250 nM.
For `CCCC(C(=O)NC1(C)CCCCC1)N1CCN(c2ccnc3ccc(F)cc23)CC1` (racemic) [Example 247, (±)-2-(4-(6-Fluoroquinolin-4-yl)piperazin-1-yl)-N-(1-methylcyclohexyl)pentanamide], the IC50 was > 250 nM.
In the case of `CCCC(C(=O)Nc1ccc(Cl)cc1)N1CCN(c2ccnc3ccc(F)cc23)CC1` (single isomer, unassigned) [Example 246, N-(4-Chlorophenyl)-2-(4-(6-fluoroquinolin-4-yl)piperazin-1-yl)pentanamide], the IC50 is reported as > 250 nM.
In the case of `CCC(C(=O)Nc1ccc(Cl)cc1)[C@H]1CC[C@H](Oc2ccnc3c(C(F)(F)F)cccc23)CC1` (stereo partly drawn) [Example 86, N-(4-Chlorophenyl)-2-((trans)-4-((8-(trifluoromethyl)quinolin-4-yl)oxy)cyclohexyl)butanamide], the IC50 is reported as < 50 nM.
`CC(C(=O)Nc1ccc(Cl)cc1)N1CCC(Oc2ccnc3ccc(F)cc23)CC1` (racemic) [Example 96, (±)—N-(4-Chlorophenyl)-2-(4-((6-fluoroquinolin-4-yl)oxy)piperidin-1-yl)propanamide] was tested, and the IC50 was < 50 nM.
In the case of `C[C@@H](C(=O)Nc1ccc(Oc2ccccc2)cc1)[C@H]1CC[C@@H](c2ccnc3ccc(F)cc32)CC1` [Example 71, (R)-2-((cis)-4-(6-fluoroquinolin-4-yl)cyclohexyl)-N-(4-phenoxyphenyl)propanamide], the IC50 is reported as < 50 nM.
For `O=C(CN1CCC(Oc2ccc3nccc(Cl)c3c2)CC1)Nc1ccc(Cl)cc1` [Example 90, N-(4-Chlorophenyl)-2-(4-((4-chloroquinolin-6-yl)oxy)piperidin-1-yl)acetamide], the IC50 was > 250 nM.
`CC(C(=O)Nc1ccc(F)cc1)N1CCC(Oc2ccnc3ccc(F)cc23)CC1` (single isomer, unassigned) [compound 106] was tested, and the IC50 was > 250 nM.
`CCC(C(=O)Nc1ccc(Cl)cc1)[C@H]1CC[C@@H](Oc2cc(C(F)(F)F)nc3ccccc23)CC1` (single isomer, unassigned) [Example 88b, N-(4-Chlorophenyl)-2-((cis)-4-((2-(trifluoromethyl)quinolin-4-yl)oxy)cyclohexyl)butanamide] was tested, and the IC50 was < 250 nM.
In the case of `C[C@H](C(=O)Nc1ccc(Cl)cc1)[C@H]1CC[C@@H](c2ccnc3cn[nH]c32)CC1` (single isomer, unassigned) [Example 150a], the IC50 is reported as < 50 nM.
In the case of `CC(C(=O)Nc1ccc(Br)cc1)N1CCN(c2ccnc3ccc(F)cc23)CC1` (racemic) [Example 127, (±)—N-(4-Bromophenyl)-2-(4-(6-fluoroquinolin-4-yl)piperazin-1-yl)propanamide], the IC50 is reported as > 250 nM.
`CC(C(=O)Nc1ccc(Cl)cc1)C1CCC(c2ccnc3ncccc23)CC1` (racemic) [Example 147, (±)-2-(Cis- and trans-4-(1,8-naphthyridin-4-yl)cyclohexyl)-N-(4-chlorophenyl)propanamide] was tested, and the IC50 was < 50 nM.
`CCC(C(=O)Nc1ccc(Cl)cc1)C1CCN(c2ccnc3ccc(F)cc23)CC1` (racemic) [Example 243, (±)—N-(4-Chlorophenyl)-2-(1-(6-fluoroquinolin-4-yl)piperidin-4-yl)butanamide] was tested, and the IC50 was > 250 nM.
For `C[C@@H](C(=O)Nc1ccccc1)[C@H]1CC[C@@H](c2ccnc3ccc(F)cc32)CC1` [Example 58, (R)-2-((cis)-4-(6-fluoroquinolin-4-yl)cyclohexyl)-N-phenylpropanamide], the IC50 was < 50 nM.
With `CCC(C(=O)Nc1ccc(Cl)cc1)N1CCC(Oc2ccnc3ccc(F)cc23)CC1` (stereo not shown) [compound 112] the IC50 was > 250 nM.
For `C[C@@H](C(=O)Nc1ccc(Cl)cc1)[C@H]1CC[C@@H](c2ccnc3c2ncn3C)CC1` (single isomer, unassigned) [Example 251c, N-(4-chlorophenyl)-2-(4-(3-methyl-3H-imidazo[4,5-b]pyridin-7-yl)cyclohexyl)propanamide], the IC50 was < 50 nM.
`C[C@@H](C(=O)Nc1ccc(C(F)(F)F)c(C#N)c1)[C@H]1CC[C@@H](c2ccnc3ccc(F)cc32)CC1` [Example 82, (R)—N-(3-Cyano-4-(trifluoromethyl)phenyl)-2-((cis)-4-(6-fluoroquinolin-4-yl)cyclohexyl)propanamide] was tested, and the IC50 was < 250 nM.
With `COC(=O)c1ccc(NC(=O)[C@H](C)[C@H]2CC[C@@H](c3ccnc4ccc(F)cc43)CC2)cc1` [Example 68, methyl 4-((R)-2-((cis)-4-(6-fluoroquinolin-4-yl)cyclohexyl)propanamido)benzoate] the IC50 was < 50 nM.
In the case of `C[C@@H](C(=O)Nc1cccc(C#N)c1)[C@H]1CC[C@@H](c2ccnc3ccc(F)cc32)CC1` [Example 79, (R)-N-(3-cyanophenyl)-2-((cis)-4-(6-fluoroquinolin-4-yl)cyclohexyl)propanamide], the IC50 is reported as < 250 nM.
`C[C@H](C(=O)Nc1ccc(Cl)cc1)[C@H]1CC[C@H](c2ccnc3ccc(I)cc32)CC1` (single isomer, unassigned) [Example 152c] was tested, and the IC50 was < 250 nM.
For `C[C@@H](C(=O)NC1CC2CCC1C2)[C@H]1CC[C@@H](c2ccnc3ccc(F)cc32)CC1` (stereo partly drawn) [Example 240, (2R)-N-((2S)-bicyclo[2.2.1]heptan-2-yl)-2-(cis-4-(6-fluoroquinolin-4-yl)cyclohexyl)propanamide], the IC50 was < 250 nM.
In the case of `C[C@@H](C(=O)Nc1cccnc1)[C@H]1CC[C@@H](c2ccnc3ccc(F)cc32)CC1` [Example 76, (R)-2-((cis)-4-(6-fluoroquinolin-4-yl)cyclohexyl)-N-(pyridin-3-yl)propanamide], the IC50 is reported as < 50 nM.
With `CC(C(=O)Nc1ccc(Cl)cc1)[C@H]1CC[C@H](Oc2ccnc3ncccc23)CC1` (mixture of isomers) [Example 153, (±)-2-((trans)-4-((1,8-Naphthyridin-4-yl)oxy)cyclohexyl)-N-(4-chlorophenyl)propanamide] the IC50 was < 50 nM.
For `CCC(C(=O)Nc1ccc(Cl)cc1)[C@H]1CC[C@H](Oc2ccnc3cc(C(F)(F)F)ccc23)CC1` (mixture of isomers) [Example 83, (±)—N-(4-Chlorophenyl)-2-((trans)-4-((7-(trifluoromethyl)quinolin-4-yl)oxy)cyclohexyl)butanamide], the IC50 was < 250 nM.
For `O=C(CN1CCC(Oc2ccnc3ccc(F)cc23)CC1)Nc1ccc(Cl)cc1` [Example 95, N-(4-Chlorophenyl)-2-(4-((6-fluoroquinolin-4-yl)oxy)piperidin-1-yl)acetamide], the IC50 was < 250 nM.
